Assay results taken from PMC6009948, “Design and synthesis of benzopyran-based inhibitors of the hypoxia-inducible factor-1 pathway with improved water solubility” (Journal of Enzyme Inhibition and Medicinal Chemistry, 2017).
≈ marks a conversion by molar mass, not a printed value. Where two headings read alike, the source gives them in different places.

Experiments:
[1] = Solubility by dynamic light scattering (particle aggregation); format: physicochemical; conditions: DLS; for Concentration of particle appearance in PBS: PBS with 1% DMSO, rested 1 h; for Concentration of particle appearance in water: de-ionised water with 1% DMSO, room temperature, rested 24 h
Experimental: To further investigate the true enhancement of solubility, particle aggregation was examined using dynamic light scattering (DLS). Selected compounds were treated according to the following procedure: • All centrifuge tubes and cuvettes were rinsed with either DCM or water and then vacuum dried before use to remove dust and any particulates. • Stock solutions (10 mM) of each compound of interest were prepared in filtered DMSO. • Six dilutions (0, 10, 20, 30, 50, and 100 µM) were prepared in filtered de-ionised water with 1% DMSO and allowed to rest at room temperature for 24 h after vortex. • DLS analysis was performed for each concentration on the Brookhaven Instrument Corporation, NanoBrook 90Plus Particle Size Analyzer, Version 5.20 (Holtsville, NY). • Additional experiments were performed at specific concentrations for each compound as follows: 0, 1, 3, 10, and 20 µM concentrations of 1; 0, 10, 12, and 20 µM of 2; 0, 5, 7, and 10 µM of 3a; and 0, 10, 20, 30, and 50 µM concentrations of 4a. • Additional experiments were repeated in filtered PBS* with 1% DMSO as follows: 0, 0.5, 1, 2, 3, and 5 µM concentrations of 1; 0, 5, 7, 10, 12, and 15 µM of 2; 0, 10, 12, 15, and 20 µM of 3a; and 0, 10, 20, 30, and 50 µM concentrations of 4a.
*Experiments in PBS were carried out the same way as the experiments in water except DMSO stock solutions were made at 5 mM and the PBS diluted samples rested for 1 h before particle analysis.
To investigate the true enhancement of aqueous solubility, particle aggregation was examined using DLS. DLS can detect particle sizes in solution by measuring changes in scattered light in relation to the Brownian motion of particles. It is commonly used to detect the particle sizes of various chemical and biological molecules, including small molecule inhibitors. Though there are several methods for detecting solubility, we chose the DLS method due to its ease, reproducibility, minimal sample requirement, and relative sensitivity to small particles.
The active compounds 3a and 4a were compared to their non-morpholine containing counterparts, 1 and 2, respectively (Figure 3). Solutions of varying concentrations of each compound were made in either water or PBS with 1% DMSO. […] DLS measurements, summarised in Table 2, reveal that 3a forms aggregates at approximately 10 µM, an order of magnitude higher than 1, which is insoluble at just 1 µM in water.

[2] = test system: hypoxia-induced HIF transcriptional activity; conditions: cited from earlier work
[3] = set-up: method as in earlier work; conditions: cited from earlier work
[4] = test system: brain, and pancreatic cancers; set-up: method as in earlier work; conditions: cited from earlier work
[5] = set-up: method as in earlier work; conditions: daily treatments with 60 mg/kg for up to 12 weeks; cited from earlier work
[6] = set-up: method as in earlier work; conditions: cited from earlier work; remark: listed apart in the source
[7] = test system: hypoxia-induced HIF transcriptional activity; experiment: HRE-luciferase reporter assay in LN229-HRE-luciferase glioma cells; format: cell-based; conditions: read-out: IC50, HRE-luciferase reporter inhibitory activity
Experimental: These analogs were first evaluated for their ability to inhibit hypoxia-induced HIF transcriptional activity in LN229-HRE-luciferase glioma cells as described previously. Their inhibitory activities are presented as IC50 in Table 1.
All the analogs were assessed for their ability to inhibit the HIF-1 pathway using a luciferase reporter assay described previously. This assay reports the ability for a compound to inhibit HIF transcriptional activity. […] The same is true if the morpholino unit is directly attached to the sulfonyl group (6). In the two series of compounds (3, 4) with a substituted phenyl group replacing the benzopyran ring in 1, only introduction of the morpholino moiety at the para positions (3) allowed for the preservation of HIF inhibition activity.

COc1ccc(S(=O)(=O)N(Cc2ccc3c(c2)C=CC(C)(C)O3)c2ccccc2)cc1OC [Compound 1, N-((2,2-dimethyl-2H-chromen-6-yl)methyl)-3,4-dimethoxy-N-phenylbenzenesulfonamide]
Concentration of particle appearance in PBS [1]: 1 µM
Concentration of particle appearance in water [1]: 1 µM
IC50 ([2]; lead compound 1 (KCN1), read-out: IC50, HIF-dependent bioassay (HRE-luciferase reporter)): ~0.6 µM
solubility in water [3]: 9 ng/mL (≈ 0.0193 µM)
in vivo inhibitory activity against brain, and pancreatic cancers [4]: very pronounced inhibitory activity
tolerability / side effects in mice [5]: minimal side effects
cytotoxicity [6]: Neither did 1 nor its analogs demonstrate cytotoxicity

COc1ccc(S(=O)(=O)N(CCN2CCOCC2)Cc2ccc3c(c2)C=CC(C)(C)O3)cc1OC [Compound 5a, N-((2,2-Dimethyl-2H-chromen-6-yl)methyl)-3,4-dimethoxy-N-(2-morpholinoethyl)benzenesulfonamide]
IC50 ([7]; Glioma cell): > 5 µM

COc1ccc(S(=O)(=O)N(Cc2ccc3c(n2)C=CC(C)(C)O3)C2CCC2)cc1OC [Compound 2, N-cyclobutyl-N-((2,2-dimethyl-2H-pyrano[3,2-b]pyridin-6-yl)methyl)-3,4-dimethoxybenzenesulfonamide]
Concentration of particle appearance in PBS [1]: 10 µM
Concentration of particle appearance in water [1]: 10 µM
IC50 ([2]; lead compound 2 (64b), read-out: IC50, HRE-luciferase reporter inhibitory activity): ~0.3 µM

COc1ccc(S(=O)(=O)N(Cc2ccc(CN3CCOCC3)cc2)c2ccccc2)cc1OC [Compound 3a, 3,4-Dimethoxy-N-(4-(morpholinomethyl)benzyl)-N-phenylbenzenesulfonamide]
IC50 ([7]; Glioma cell): 0.9 µM
Concentration of particle appearance in PBS [1]: 15 µM

CC1(C)C=Cc2cc(CN(c3ccccc3)S(=O)(=O)N3CCOCC3)ccc2O1 [Compound 6a, N-((2,2-Dimethyl-2H-chromen-6-yl)methyl)-N-phenylmorpholine-4-sulfonamide]
IC50 ([7]; Glioma cell): > 5 µM

COc1ccc(S(=O)(=O)N(Cc2ccc(N3CCOCC3)cc2)c2ccccc2)cc1OC [Compound 3d, 3,4-Dimethoxy-N-(4-morpholinobenzyl)-N-phenylbenzenesulfonamide]
IC50 ([7]; Glioma cell): 3.8 µM

COc1ccc(S(=O)(=O)N(Cc2cccc(CN3CCOCC3)c2)c2ccccc2)cc1OC [Compound 3b, 3,4-Dimethoxy-N-(3-(morpholinomethyl)benzyl)-N-phenylbenzenesulfonamide]
IC50 ([7]; Glioma cell): > 5 µM

COc1ccc(S(=O)(=O)N(Cc2ccc(N3CCOCC3)cc2)C2CCC2)cc1OC [Compound 4d, N-Cyclobutyl-3,4-dimethoxy-N-(4-morpholinobenzyl)benzenesulfonamide]
IC50 ([7]; Glioma cell): ~2.6 µM

COc1ccc(S(=O)(=O)N(Cc2cccc(CN3CCOCC3)c2)C2CCC2)cc1OC [Compound 4b, N-Cyclobutyl-3,4-dimethoxy-N-(3-(morpholinomethyl)benzyl)benzenesulfonamide]
IC50 ([7]; Glioma cell): > 5 µM

COc1ccc(S(=O)(=O)N(CCCN2CCOCC2)Cc2ccc3c(c2)C=CC(C)(C)O3)cc1OC [Compound 5b, N-((2,2-Dimethyl-2H-chromen-6-yl)methyl)-3,4-dimethoxy-N-(3-morpholinopropyl)benzenesulfonamide]
IC50 ([7]; Glioma cell): > 5 µM

3,4-Dimethoxy-N-(2-(morpholinomethyl)benzyl)-N-phenylbenzenesulfonamide [Compound 3c]
IC50 [7]: > 5 µM

COc1ccc(S(=O)(=O)N(Cc2ccc(CN3CCOCC3)cc2)C2CCC2)cc1OC [Compound 4a, N-Cyclobutyl-3,4-dimethoxy-N-(4-(morpholinomethyl)benzyl)benzenesulfonamide]
IC50 ([7]; Glioma cell): 1 µM
Concentration of particle appearance in water [1]: >100 µM

CC1(C)C=Cc2cc(CN(C3CCC3)S(=O)(=O)N3CCOCC3)ccc2O1 [Compound 6b, N-Cyclobutyl-N-((2,2-dimethyl-2H-chromen-6-yl)methyl)morpholine-4-sulfonamide]
IC50 ([7]; Glioma cell): > 5 µM

N-Cyclobutyl-3,4-dimethoxy-N-(2-(morpholinomethyl)benzyl)benzenesulfonamide [Compound 4c]
IC50 [7]: > 5 µM
